The record followed here is PMC4685510, “A Cell Biologist’s Field Guide to Aurora Kinase Inhibitors” (Frontiers in Oncology, 2015).

What all share (test): biochemical
Holding throughout (format): biochemical

For experiment [1], the target named is 363 human kinases (including Aurora A/B/C) (Homo sapiens, UniProt P23443). The settings on record: p70S6K/RPS6KB1; for remaining activity at 0.1 µM: 100 nM; for remaining activity at 0.1 µM / remaining activity at 0.5 µM: read-out: % Enzyme Activity (relative to DMSO controls).
Chain of 363 human kinases (including Aurora A/B/C) (Homo sapiens, UniProt P23443) (P23443 whole entry): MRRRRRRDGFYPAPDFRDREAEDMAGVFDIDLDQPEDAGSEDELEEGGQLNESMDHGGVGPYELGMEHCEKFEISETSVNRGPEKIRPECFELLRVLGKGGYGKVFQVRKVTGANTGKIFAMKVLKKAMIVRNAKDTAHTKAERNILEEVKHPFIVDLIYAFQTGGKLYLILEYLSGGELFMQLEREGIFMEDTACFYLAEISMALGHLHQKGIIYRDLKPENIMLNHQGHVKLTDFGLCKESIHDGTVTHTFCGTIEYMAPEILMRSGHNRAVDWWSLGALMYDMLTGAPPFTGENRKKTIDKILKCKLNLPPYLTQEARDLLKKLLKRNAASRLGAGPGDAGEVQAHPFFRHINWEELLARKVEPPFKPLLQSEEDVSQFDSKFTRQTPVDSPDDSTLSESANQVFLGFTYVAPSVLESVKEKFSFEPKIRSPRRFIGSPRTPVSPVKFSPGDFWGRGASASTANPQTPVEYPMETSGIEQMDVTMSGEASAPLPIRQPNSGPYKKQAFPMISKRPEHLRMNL
From the text: (§1) However, the Aurora A/B selectivity ratios derived from our in vitro and in vivo data can be compared to prioritize inhibitors.
The target in experiment [2] is T1, 363 human kinases (including Aurora A/B/C) (Homo sapiens, UniProt Q09013).
T1 sequence (Q09013 1-629): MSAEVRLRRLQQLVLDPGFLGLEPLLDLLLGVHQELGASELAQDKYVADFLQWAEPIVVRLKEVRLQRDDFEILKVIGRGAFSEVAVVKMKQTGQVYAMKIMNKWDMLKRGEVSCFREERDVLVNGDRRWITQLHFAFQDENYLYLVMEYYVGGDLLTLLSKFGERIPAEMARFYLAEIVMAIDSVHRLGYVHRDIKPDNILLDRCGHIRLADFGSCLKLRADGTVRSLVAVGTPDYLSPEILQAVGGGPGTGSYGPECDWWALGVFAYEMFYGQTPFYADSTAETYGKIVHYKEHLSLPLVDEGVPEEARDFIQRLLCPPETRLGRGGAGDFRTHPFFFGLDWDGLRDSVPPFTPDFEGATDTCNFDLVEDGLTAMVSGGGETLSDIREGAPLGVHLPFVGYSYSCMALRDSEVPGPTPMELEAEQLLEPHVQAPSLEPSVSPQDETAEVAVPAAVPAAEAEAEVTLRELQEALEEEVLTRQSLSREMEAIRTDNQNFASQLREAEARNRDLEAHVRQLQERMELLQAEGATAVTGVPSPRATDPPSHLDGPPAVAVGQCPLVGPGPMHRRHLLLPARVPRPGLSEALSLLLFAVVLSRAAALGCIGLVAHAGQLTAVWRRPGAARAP
The settings on record: DMPK, [ATP] 15 µM; for remaining activity at 0.1 µM: 100 nM; for remaining activity at 0.1 µM / remaining activity at 0.5 µM: read-out: % Enzyme Activity (relative to DMSO controls).
From the text: as §1

Experiment [3] concerns the target T2, 363 human kinases (including Aurora A/B/C) (Homo sapiens, UniProt Q9UL54).
T2 sequence (Q9UL54 1-1235): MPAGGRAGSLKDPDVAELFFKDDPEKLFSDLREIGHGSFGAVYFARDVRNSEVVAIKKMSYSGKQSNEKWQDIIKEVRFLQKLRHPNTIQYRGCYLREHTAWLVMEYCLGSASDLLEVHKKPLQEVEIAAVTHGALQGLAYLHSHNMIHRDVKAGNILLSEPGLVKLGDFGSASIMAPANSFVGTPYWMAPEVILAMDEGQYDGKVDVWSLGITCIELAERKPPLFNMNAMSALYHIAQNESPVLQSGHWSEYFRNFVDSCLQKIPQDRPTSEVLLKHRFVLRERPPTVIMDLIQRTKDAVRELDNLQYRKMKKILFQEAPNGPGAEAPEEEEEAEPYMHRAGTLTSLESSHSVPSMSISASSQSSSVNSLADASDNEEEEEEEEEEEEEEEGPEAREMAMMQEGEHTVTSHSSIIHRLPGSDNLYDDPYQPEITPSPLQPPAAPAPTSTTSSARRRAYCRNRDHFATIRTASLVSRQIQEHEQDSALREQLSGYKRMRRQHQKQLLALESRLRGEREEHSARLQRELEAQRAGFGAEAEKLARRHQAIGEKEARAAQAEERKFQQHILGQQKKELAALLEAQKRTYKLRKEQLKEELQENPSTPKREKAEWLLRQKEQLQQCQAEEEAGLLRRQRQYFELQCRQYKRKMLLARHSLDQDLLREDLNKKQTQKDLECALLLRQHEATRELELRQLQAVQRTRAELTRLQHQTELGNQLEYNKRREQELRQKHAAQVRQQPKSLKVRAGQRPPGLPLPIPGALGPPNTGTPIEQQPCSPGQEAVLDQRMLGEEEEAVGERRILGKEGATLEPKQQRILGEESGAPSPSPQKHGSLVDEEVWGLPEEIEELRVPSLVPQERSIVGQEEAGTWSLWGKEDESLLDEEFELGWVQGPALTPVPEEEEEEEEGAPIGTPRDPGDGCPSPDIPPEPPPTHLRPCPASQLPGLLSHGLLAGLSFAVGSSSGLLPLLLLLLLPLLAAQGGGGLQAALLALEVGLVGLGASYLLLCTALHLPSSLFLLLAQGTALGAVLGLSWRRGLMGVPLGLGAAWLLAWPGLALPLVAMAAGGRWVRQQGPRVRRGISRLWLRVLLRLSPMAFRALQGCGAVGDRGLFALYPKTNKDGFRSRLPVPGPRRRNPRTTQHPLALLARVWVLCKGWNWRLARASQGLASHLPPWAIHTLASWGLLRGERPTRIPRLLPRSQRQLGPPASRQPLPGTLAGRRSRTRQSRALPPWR
The settings on record: TAOK2/TAO1; for remaining activity at 0.1 µM: 100 nM; for remaining activity at 0.1 µM / remaining activity at 0.5 µM: read-out: % Enzyme Activity (relative to DMSO controls).
From the text: as §1

`CCn1cc(-c2ccnc3[nH]c(-c4cccc(CN(C)C)c4)cc23)c(-c2ccc(NC(=O)N(C)C)cc2)n1` [GSK1070916]: the values for the remaining activity at 0.1 µM in experiment [1], in experiment [2] and in experiment [3] were 101%, 114% and 92.6%, respectively.

With `O=C(O)[C@]1(Cc2cccc(Nc3nccs3)n2)CC[C@@H](Oc2cccc(Cl)c2F)CC1` [MK-5108], the results for the remaining activity at 0.1 µM in experiment [1], in experiment [2] and in experiment [3] were 98.3%, 105% and 97.5%, respectively. For the same compound, the remaining activity at 0.5 µM in experiment [1] (500 nM) was 97.7%; in experiment [2] (500 nM), 115%; in experiment [3] (500 nM) it was 78.1%.

As to `O=C(c1cccc(Cl)c1F)N1CCN(Cc2cccc(Nc3nccs3)n2)CC1` [MK-8745], the figures for the “% Enzyme Activity (relative to DMSO controls)” value in experiment [1] (500 nM), in experiment [2] (500 nM) and in experiment [3] (500 nM) were 99.31%, 114.90% and 97.14%, respectively. In addition, the remaining activity at 0.5 µM was found to be 100% in experiment [1] (500 nM), 115% in experiment [2] (500 nM) and 97.6% in experiment [3] (500 nM).
